Laboratory results as given in ChEMBL document CHEMBL3588744, “Structure-Based Optimization of Naphthyridones into Potent ATAD2 Bromodomain Inhibitors” (J Med Chem, 2015).
In brackets after ≈: the same amount, converted by molar mass.

Columns and labels:
[1] = molecular target: T1, ATPase family AAA domain-containing protein 2 (Homo sapiens, UniProt Q6PL18)
T1 sequence (Q6PL18 whole entry): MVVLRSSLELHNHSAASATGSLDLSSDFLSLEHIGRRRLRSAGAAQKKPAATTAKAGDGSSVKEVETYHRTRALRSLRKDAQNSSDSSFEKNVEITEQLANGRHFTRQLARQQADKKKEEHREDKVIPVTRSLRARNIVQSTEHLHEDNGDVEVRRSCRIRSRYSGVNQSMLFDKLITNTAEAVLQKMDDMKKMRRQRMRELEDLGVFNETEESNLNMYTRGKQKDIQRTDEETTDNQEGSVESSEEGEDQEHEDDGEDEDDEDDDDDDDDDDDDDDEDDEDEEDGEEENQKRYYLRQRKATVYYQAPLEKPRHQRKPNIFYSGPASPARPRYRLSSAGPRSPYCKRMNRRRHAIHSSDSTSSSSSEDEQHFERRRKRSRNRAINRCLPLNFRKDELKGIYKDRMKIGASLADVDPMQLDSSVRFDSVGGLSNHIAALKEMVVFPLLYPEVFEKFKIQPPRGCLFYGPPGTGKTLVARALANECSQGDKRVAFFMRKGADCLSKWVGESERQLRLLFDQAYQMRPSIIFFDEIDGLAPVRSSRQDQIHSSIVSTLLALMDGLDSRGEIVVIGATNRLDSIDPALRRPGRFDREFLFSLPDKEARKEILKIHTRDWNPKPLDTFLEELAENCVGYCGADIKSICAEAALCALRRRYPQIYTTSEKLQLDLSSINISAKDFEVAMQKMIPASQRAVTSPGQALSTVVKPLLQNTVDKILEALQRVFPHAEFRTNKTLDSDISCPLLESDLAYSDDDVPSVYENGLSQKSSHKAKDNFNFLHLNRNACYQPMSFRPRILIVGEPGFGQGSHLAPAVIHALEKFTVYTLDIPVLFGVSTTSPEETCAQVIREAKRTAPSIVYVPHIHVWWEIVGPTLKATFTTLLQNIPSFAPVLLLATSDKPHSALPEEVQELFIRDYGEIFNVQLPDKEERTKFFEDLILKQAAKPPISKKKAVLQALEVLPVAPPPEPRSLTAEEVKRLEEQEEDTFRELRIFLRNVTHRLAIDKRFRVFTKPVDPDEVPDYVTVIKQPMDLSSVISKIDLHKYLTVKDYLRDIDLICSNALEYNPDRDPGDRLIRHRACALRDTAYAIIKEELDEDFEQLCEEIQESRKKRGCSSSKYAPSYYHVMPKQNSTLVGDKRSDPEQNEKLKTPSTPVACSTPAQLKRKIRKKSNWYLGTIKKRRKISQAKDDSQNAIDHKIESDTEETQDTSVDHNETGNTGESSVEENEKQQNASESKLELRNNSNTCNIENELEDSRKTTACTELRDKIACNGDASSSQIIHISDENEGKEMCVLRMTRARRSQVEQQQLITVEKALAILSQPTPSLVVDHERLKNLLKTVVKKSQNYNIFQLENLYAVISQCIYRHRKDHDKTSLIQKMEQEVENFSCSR

[2] = molecular target: Bromodomain-containing protein 4 (Homo sapiens, UniProt O60885, Y390A)
[3] = molecular target: T1, ATPase family AAA domain-containing protein 2; remark: listed apart in the source
Description: Displacement of histone H4 peptide from FLAG-6His-Tev-ATAD2 (981 to 1121) (unknown origin) expressed in Escherichia coli BL21 (DE3) after 30 mins by TR-FRET analysis relative to control

[4] = Permeability across phosphatidyl choline membrane at pH 7.4 after 3 hrs by HPLC with UV detection method; format: ADME; conditions: not told, read-out: permeability
physchem = conditions: phosphate buffered saline, pH 7.4, solubility
Description: Solubility of the compound in phosphate buffered saline at pH 7.4 after 1 hr by CLND method

[5] = molecular target: T2, Bromodomain-containing protein 3 (Homo sapiens, UniProt Q15059); experiment: Binding affinity to BRD3 containing BD1 bromodomains (unknown origin) by TR-FRET assay
[6] = molecular target: T2, Bromodomain-containing protein 3; experiment: Binding affinity to BRD3 containing BD2 bromodomains (unknown origin) by TR-FRET assay
[7] = molecular target: T3, Bromodomain testis-specific protein (Homo sapiens, UniProt Q58F21); experiment: Binding affinity to BRDt containing BD2 bromodomains (unknown origin) by TR-FRET assay
[8] = molecular target: T4, Bromodomain-containing protein 4 (Homo sapiens, UniProt O60885); experiment: Binding affinity to BRD4 containing BD2 bromodomains (unknown origin) by TR-FRET assay
[9] = Distribution coefficient, log D of the compound at pH 7.4 by chromatographic method; format: physicochemical; conditions: octanol/water
[10] = molecular target: T4, Bromodomain-containing protein 4; experiment: Binding affinity to BRD4 containing BD1 bromodomains (unknown origin) by TR-FRET assay
[11] = molecular target: T2, Bromodomain-containing protein 3; experiment: Binding affinity to BRD3 in human HUT78 cells incubated for 45 mins by mass spectrometry based bromosphere chemoproteomic assay; format: cell-based
Peregrin = molecular target: T5, Peregrin (Homo sapiens, UniProt P55201); experiment: Binding affinity to BRPF1 in human HUT78 cells incubated for 45 mins by mass spectrometry based bromosphere chemoproteomic assay; format: cell-based
T5 sequence (P55201 whole entry): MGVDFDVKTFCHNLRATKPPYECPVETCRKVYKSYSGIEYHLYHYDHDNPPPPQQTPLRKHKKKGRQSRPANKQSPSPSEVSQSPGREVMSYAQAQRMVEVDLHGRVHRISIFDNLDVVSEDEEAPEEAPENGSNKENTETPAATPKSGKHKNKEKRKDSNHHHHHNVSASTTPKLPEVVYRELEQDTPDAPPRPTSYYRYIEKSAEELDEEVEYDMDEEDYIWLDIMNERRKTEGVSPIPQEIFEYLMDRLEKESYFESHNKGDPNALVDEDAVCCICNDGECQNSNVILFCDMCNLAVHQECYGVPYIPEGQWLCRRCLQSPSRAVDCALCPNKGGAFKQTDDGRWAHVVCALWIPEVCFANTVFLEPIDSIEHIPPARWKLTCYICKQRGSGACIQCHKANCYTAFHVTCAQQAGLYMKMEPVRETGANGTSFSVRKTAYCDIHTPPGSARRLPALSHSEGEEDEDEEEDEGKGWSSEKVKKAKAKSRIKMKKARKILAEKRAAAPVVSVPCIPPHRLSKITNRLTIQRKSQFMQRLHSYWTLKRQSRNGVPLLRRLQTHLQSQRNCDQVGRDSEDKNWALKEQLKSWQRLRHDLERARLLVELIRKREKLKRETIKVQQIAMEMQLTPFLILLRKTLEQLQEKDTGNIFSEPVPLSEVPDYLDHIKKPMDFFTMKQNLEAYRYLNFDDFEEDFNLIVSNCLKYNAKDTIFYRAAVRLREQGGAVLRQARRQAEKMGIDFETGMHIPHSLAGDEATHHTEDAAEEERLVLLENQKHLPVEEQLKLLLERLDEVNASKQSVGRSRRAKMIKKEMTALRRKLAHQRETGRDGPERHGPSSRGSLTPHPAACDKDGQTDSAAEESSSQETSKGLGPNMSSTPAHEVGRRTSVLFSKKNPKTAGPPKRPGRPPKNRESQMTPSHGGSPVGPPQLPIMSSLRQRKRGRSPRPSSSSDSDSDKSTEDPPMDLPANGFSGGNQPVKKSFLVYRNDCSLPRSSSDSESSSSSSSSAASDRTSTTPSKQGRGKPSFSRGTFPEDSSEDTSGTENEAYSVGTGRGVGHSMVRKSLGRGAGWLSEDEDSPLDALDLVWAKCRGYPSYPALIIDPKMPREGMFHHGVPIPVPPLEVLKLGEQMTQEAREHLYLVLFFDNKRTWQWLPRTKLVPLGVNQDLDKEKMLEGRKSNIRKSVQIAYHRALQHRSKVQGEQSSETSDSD

[12] = molecular target: Nucleosome-remodeling factor subunit BPTF (Homo sapiens, UniProt Q12830); experiment: Binding affinity to BPTF in human HUT78 cells incubated for 45 mins by mass spectrometry based bromosphere chemoproteomic assay; format: cell-based
[13] = molecular target: Transcription initiation factor TFIID subunit 1 (Homo sapiens, UniProt P21675); experiment: Binding affinity to TAF1 in human HUT78 cells incubated for 45 mins by mass spectrometry based bromosphere chemoproteomic assay; format: cell-based
[14] = molecular target: Bromodomain-containing protein 2 (Homo sapiens, UniProt P25440); experiment: Binding affinity to BRD2 in human HUT78 cells incubated for 45 mins by mass spectrometry based bromosphere chemoproteomic assay; format: cell-based
[15] = molecular target: T6, Bromodomain-containing protein 9 (Homo sapiens, UniProt Q9H8M2); experiment: Binding affinity to BRD9 in human HUT78 cells incubated for 45 mins by mass spectrometry based bromosphere chemoproteomic assay; format: cell-based
T6 sequence (Q9H8M2 whole entry): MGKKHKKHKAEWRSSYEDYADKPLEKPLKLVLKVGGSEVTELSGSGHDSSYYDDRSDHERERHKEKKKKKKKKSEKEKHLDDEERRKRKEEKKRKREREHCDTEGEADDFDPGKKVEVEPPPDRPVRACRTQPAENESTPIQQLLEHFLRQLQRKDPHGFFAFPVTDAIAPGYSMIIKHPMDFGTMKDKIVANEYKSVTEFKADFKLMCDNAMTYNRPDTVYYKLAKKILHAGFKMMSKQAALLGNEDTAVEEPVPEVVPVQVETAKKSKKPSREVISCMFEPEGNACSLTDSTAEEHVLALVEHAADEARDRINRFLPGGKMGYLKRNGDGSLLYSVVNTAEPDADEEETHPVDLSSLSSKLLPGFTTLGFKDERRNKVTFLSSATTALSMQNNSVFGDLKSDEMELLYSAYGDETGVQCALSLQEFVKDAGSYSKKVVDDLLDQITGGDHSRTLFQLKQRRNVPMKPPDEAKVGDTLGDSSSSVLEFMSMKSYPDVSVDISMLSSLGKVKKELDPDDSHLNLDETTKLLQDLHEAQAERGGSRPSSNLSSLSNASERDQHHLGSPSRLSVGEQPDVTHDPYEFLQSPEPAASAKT

[16] = molecular target: Bromodomain adjacent to zinc finger domain protein 2A (Homo sapiens, UniProt Q9UIF9); experiment: Binding affinity to BAZ2A in human HUT78 cells incubated for 45 mins by mass spectrometry based bromosphere chemoproteomic assay; format: cell-based
Protein polybromo-1 = Protein polybromo-1 (Homo sapiens, UniProt Q86U86); experiment: Binding affinity to PBRM1 in human HUT78 cells incubated for 45 mins by mass spectrometry based bromosphere chemoproteomic assay; format: cell-based
[17] = molecular target: Histone acetyltransferase KAT2A (Homo sapiens, UniProt Q92830); experiment: Binding affinity to KAT2A in human HUT78 cells incubated for 45 mins by mass spectrometry based bromosphere chemoproteomic assay; format: cell-based
[18] = molecular target: Tyrosine-protein kinase BAZ1B (Homo sapiens, UniProt Q9UIG0); experiment: Binding affinity to BAZ1B in human HUT78 cells incubated for 45 mins by mass spectrometry based bromosphere chemoproteomic assay; format: cell-based
[19] = molecular target: Histone acetyltransferase KAT2B (Homo sapiens, UniProt Q92831); experiment: Binding affinity to KAT2B in human HUT78 cells incubated for 45 mins by mass spectrometry based bromosphere chemoproteomic assay; format: cell-based
[20] = molecular target: Bromodomain-containing protein 7 (Homo sapiens, UniProt Q9NPI1); experiment: Binding affinity to BRD7 in human HUT78 cells incubated for 45 mins by mass spectrometry based bromosphere chemoproteomic assay; format: cell-based
[21] = molecular target: T3, Bromodomain testis-specific protein; experiment: Binding affinity to BRDT in human HUT78 cells incubated for 45 mins by mass spectrometry based bromosphere chemoproteomic assay; format: cell-based

T2 sequence (Q15059 whole entry): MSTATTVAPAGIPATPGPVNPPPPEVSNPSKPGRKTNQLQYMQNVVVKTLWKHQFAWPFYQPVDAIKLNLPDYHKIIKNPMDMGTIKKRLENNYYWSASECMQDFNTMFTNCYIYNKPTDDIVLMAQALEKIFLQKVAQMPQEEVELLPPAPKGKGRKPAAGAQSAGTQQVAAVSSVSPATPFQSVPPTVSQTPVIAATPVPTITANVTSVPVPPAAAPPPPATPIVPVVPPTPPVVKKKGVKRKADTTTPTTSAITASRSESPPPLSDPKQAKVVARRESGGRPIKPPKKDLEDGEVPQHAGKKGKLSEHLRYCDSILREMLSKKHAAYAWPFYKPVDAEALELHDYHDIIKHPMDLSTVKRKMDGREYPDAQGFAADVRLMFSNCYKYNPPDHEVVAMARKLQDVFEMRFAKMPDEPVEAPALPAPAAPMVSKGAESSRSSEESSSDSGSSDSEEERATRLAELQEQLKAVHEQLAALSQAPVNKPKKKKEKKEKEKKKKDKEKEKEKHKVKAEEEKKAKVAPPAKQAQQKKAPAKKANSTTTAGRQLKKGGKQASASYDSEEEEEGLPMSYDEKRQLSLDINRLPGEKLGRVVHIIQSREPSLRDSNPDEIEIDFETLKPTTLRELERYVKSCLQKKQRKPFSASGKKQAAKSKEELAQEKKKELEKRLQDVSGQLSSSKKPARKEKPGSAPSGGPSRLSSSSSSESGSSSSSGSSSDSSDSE
Chain of Histone acetyltransferase KAT2A (Q92830 whole entry): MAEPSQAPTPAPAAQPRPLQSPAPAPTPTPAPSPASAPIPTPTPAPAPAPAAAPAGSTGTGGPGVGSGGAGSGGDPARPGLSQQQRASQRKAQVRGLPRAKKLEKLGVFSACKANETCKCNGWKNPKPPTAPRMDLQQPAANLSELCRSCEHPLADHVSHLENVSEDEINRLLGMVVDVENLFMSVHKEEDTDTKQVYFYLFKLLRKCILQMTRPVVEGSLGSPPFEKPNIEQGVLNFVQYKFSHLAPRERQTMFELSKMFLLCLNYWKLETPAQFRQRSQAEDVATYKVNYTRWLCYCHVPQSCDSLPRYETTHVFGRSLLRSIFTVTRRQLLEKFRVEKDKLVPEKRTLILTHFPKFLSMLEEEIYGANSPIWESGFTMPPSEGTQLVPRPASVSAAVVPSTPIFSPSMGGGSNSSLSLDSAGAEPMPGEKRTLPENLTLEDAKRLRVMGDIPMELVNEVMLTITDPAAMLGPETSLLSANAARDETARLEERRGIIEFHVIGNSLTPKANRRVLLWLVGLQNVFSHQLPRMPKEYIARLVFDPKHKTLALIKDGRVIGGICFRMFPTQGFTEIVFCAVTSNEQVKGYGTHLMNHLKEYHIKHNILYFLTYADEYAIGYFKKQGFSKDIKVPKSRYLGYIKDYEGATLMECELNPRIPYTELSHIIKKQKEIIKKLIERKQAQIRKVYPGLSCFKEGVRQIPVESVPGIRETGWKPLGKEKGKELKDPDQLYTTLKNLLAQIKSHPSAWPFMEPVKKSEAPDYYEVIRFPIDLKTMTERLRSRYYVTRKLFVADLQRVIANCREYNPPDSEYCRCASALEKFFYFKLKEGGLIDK
Chain of Protein polybromo-1 (Q86U86 whole entry): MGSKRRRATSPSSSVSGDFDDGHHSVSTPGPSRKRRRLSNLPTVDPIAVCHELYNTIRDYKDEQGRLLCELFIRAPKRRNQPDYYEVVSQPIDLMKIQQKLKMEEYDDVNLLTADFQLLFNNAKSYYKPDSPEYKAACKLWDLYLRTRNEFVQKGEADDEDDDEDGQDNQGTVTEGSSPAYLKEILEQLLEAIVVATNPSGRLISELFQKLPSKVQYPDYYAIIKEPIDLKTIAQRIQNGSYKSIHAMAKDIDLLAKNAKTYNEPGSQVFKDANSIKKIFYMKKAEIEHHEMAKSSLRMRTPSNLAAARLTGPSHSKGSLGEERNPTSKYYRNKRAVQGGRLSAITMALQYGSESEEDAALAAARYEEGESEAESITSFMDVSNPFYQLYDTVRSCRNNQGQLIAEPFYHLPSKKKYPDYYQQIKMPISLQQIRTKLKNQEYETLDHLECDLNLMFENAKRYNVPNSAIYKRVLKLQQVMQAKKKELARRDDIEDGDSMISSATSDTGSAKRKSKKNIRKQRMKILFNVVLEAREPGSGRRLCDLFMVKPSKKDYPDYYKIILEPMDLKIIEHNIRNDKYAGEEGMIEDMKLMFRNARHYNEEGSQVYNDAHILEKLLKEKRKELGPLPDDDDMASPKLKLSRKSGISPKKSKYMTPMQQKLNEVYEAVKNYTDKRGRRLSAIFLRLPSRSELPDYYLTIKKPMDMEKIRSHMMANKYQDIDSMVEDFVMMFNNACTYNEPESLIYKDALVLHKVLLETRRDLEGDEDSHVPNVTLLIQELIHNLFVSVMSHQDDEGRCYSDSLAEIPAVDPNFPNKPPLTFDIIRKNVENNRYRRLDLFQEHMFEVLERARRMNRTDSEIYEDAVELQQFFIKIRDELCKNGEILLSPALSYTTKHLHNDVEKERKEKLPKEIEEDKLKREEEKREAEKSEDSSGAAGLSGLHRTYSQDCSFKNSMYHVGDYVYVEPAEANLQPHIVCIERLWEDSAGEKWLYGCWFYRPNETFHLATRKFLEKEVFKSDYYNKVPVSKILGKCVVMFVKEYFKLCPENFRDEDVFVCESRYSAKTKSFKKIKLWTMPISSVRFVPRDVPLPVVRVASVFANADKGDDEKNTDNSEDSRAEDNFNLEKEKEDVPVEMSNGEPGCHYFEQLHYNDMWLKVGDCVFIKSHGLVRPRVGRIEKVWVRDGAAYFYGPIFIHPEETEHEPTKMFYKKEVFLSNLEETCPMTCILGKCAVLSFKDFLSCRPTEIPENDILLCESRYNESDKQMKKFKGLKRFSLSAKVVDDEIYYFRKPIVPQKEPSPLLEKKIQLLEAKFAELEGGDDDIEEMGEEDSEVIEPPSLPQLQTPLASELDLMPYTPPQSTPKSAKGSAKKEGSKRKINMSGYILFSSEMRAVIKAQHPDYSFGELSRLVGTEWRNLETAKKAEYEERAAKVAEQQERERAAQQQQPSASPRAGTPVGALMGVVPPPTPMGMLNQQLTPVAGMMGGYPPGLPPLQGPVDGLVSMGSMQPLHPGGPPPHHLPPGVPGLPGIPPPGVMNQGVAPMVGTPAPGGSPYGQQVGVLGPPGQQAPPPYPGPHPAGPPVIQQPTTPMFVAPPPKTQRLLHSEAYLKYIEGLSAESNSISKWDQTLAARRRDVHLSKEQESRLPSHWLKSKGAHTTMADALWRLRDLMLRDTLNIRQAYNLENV
Chain of Transcription initiation factor TFIID subunit 1 (P21675 whole entry): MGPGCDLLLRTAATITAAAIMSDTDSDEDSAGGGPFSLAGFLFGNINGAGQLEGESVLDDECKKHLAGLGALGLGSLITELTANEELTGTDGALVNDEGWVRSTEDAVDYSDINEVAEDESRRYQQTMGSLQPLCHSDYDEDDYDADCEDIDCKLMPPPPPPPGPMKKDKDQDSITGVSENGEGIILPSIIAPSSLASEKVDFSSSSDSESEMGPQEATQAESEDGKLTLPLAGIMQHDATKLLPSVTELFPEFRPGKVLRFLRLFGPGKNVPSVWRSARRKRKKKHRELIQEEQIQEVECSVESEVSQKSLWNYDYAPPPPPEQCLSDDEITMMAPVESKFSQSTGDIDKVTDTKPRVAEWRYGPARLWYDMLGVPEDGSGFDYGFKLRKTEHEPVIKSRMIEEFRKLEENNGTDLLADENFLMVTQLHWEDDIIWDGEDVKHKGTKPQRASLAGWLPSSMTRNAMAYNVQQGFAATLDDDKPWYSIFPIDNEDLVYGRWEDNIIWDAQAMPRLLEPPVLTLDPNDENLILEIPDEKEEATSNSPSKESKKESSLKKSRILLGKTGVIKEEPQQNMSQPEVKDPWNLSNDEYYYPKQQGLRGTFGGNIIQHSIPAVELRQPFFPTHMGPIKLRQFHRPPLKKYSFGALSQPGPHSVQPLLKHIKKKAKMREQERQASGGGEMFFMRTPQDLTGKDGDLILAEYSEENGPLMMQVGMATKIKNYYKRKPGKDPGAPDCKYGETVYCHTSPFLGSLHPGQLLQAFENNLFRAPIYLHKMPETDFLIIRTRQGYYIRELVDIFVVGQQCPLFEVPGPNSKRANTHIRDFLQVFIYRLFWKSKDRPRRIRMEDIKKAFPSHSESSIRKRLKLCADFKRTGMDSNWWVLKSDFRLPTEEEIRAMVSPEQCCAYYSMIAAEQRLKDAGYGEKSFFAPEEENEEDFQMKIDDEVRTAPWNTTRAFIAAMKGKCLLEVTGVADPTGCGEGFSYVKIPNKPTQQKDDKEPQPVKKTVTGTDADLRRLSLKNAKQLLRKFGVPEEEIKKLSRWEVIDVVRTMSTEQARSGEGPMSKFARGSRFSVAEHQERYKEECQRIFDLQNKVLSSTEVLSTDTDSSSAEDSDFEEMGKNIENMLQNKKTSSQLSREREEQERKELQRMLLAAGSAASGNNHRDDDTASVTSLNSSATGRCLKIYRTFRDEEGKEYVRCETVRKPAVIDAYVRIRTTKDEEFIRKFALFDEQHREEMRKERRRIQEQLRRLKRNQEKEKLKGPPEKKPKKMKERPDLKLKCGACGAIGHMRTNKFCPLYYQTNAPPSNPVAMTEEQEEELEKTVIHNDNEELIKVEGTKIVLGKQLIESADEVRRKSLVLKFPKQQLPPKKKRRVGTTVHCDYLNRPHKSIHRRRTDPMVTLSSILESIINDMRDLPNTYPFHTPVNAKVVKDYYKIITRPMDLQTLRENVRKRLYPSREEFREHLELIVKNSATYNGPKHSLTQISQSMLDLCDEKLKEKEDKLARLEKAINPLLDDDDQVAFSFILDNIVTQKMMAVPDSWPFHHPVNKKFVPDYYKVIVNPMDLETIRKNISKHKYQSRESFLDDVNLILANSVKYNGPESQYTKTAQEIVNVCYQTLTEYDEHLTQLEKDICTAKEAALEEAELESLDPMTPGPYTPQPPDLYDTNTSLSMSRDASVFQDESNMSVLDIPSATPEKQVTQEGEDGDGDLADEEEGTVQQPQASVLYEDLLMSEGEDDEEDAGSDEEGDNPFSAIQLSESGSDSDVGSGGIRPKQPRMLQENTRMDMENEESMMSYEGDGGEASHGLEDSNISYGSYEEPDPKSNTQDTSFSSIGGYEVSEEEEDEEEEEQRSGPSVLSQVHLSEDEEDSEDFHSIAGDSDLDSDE

Row | SMILES | IC50 [1] [nM] | IC50 [2] [µM] | IC50 [3] [nM] | Papp at 3 h [4] [×10⁻⁶ cm/s] | solubility kinetic at 1 h (physchem) [µM] | other results
1 | Cc1cc2c(-c3cccnc3)cnc(N[C@@H]3CCNC[C@H]3OCC3CCOCC3)c2[nH]c1=O | 200 | 6.31 | 251 | < 0.3 | ≥ 465 | 
2 | Cc1cc2c(-c3cccnc3)cnc(N[C@@H]3CCNC[C@H]3OCC3CCS(=O)(=O)CC3)c2[nH]c1=O | 100 | 10 | 126 | < 0.3 | ≥ 315 | 
3 | Cc1cncc(-c2cnc(N[C@@H]3CCNC[C@H]3OCC3CCOCC3)c3[nH]c(=O)c(C)cc23)c1 | 251 | 10 | 316 | 3.25 | 254 (≈ 118 µg/mL) | 
4 | Cc1cncc(-c2cnc(N[C@@H]3CCNC[C@H]3OCC3CCS(=O)(=O)CC3)c3[nH]c(=O)c(C)cc23)c1 |  | 15.8 |  | < 0.3 | 179 (≈ 91.6 µg/mL) | IC50 [5]: > 50.1 µM; IC50 [6]: > 50.1 µM; IC50 [7]: > 50.1 µM; IC50 [8]: 5.01 µM; chromatographic logD [9]: 1.6; IC50 [10]: 15.8 µM
5 | COc1cncc(-c2cnc(N[C@@H]3CCNC[C@H]3OCC3CCOCC3)c3[nH]c(=O)c(C)cc23)c1 | 316 | 7.94 | 251 | 3.35 | ≥ 418 | 
6 | COc1cncc(-c2cnc(N[C@@H]3CCNC[C@H]3OCC3CCS(=O)(=O)CC3)c3[nH]c(=O)c(C)cc23)c1 | 100 | 7.94 | 126 | < 0.3 | ≥ 269 | 
7 | Cc1cc2c(-c3cncnc3)cnc(N[C@@H]3CCNC[C@H]3OCC3CCOCC3)c2[nH]c1=O | 794 | 50.1 | 1000 | < 0.3 | ≥ 414 | 
8 | Cc1cncc(-c2cnc(N[C@@H]3CCNC[C@H]3OCC3CCCCC3)c3[nH]c(=O)c(C)cc23)c1 |  |  |  | 13.8 | 170 (≈ 78.5 µg/mL) | Kd [11]: 2000 nM; Kd (Peregrin): > 100 µM; Kd [12]: > 100 µM; Kd [13]: 31.6 µM; Kd [14]: 3160 nM; Kd [15]: 15.8 µM; Kd [16]: > 100 µM; Kd (Protein polybromo-1): > 100000 nM; Kd [17]: > 100 µM; chromatographic logD [9]: 4
9 | Cc1cncc(-c2ccc(N[C@@H]3CCNC[C@H]3OCC3CCS(=O)(=O)CC3)c3[nH]c(=O)c(C)cc23)c1 |  |  |  |  |  | Kd [11]: 1000 nM; Kd [18]: > 100 µM; Kd (Peregrin): 25.1 µM; Kd [19]: > 100 µM; Kd [12]: > 100 µM; Kd [20]: 3.16 µM; Kd [13]: 1.58 µM; Kd [14]: 631 nM; Kd [21]: 2000 nM; Kd [15]: 1.26 µM; Kd [16]: 3.98 µM; Kd (Protein polybromo-1): 2510 nM; Kd [17]: > 100 µM
10 | Cc1cncc(-c2cnc(N[C@@H]3CCNC[C@H]3OC[C@H]3C[C@@H](C)S(=O)(=O)[C@@H](C)C3)c3[nH]c(=O)c(C)cc23)c1 | 63.1 | 25.1 | 100 | < 0.3 | 30 (≈ 16.2 µg/mL) | 
11 | CCc1cc2c(-c3cncc(C)c3)cnc(N[C@@H]3CCNC[C@H]3OCC3CCS(=O)(=O)CC3)c2[nH]c1=O | 50.1 | 10 | 79.4 | < 0.3 | 323 (≈ 170 µg/mL) | 
